We go through 2 compounds from article PMC9957399, “New Insights into the Inhibition of Hesperetin on Polyphenol Oxidase: Inhibitory Kinetics, Binding Characteristics, Conformational Change and Computational Simulation” (Foods, 2023).

In one assay the target is monophenolase. The arrangement: method as in PMID 28873682. The following applies: previous study; read-out: IC50 on the inhibition of monophenolase activity; cited from earlier work.
For another assay, the target named is PPO (monophenolase) (Agaricus bisporus, UniProt C7FF04). Nature of the assay: PPO activity assay, monophenolase (L-tyrosine oxidation). The class given is biochemical, mushroom.
Chain of PPO (monophenolase) (C7FF04 1-392): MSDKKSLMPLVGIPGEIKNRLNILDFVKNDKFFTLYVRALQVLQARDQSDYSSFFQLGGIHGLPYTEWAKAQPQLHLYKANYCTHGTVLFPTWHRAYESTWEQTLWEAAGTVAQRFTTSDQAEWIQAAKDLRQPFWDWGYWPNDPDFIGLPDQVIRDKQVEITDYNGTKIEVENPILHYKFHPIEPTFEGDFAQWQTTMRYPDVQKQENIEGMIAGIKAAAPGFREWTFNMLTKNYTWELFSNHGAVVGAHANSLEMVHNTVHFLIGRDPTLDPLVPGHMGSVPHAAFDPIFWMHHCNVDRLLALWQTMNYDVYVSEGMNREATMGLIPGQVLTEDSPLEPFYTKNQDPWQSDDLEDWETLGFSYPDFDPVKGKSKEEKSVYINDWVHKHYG
Chain of PPO (monophenolase) (G1K3P4 1-150 partner): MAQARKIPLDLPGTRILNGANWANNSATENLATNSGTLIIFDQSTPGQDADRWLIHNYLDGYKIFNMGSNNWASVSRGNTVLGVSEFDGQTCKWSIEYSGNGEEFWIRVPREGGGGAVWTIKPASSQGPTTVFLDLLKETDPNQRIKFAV
The target in assay [1] is PPO (Agaricus bisporus, UniProt C7FF04). Nature of the assay: Kinetic analysis of inhibitory type (v vs [PPO], Lineweaver–Burk plots, L-dopa). It is filed as biochemical, mushroom. The following applies: for inhibitory type: Lineweaver–Burk plots, hesperetin 0, 300, 600, 1200 μM. An excerpt:
The inhibitory type of hesperetin against PPO could be evaluated using Lineweaver–Burk plots, and the mixed inhibition was described through Equation (1):(1) 1/v=Km/Vmax(1+[I]/Ki)1/[S]+1/Vmax(1+[I]/αKi) where v and Vmax represent enzyme reaction velocity and its maximum value, respectively. [I], [S] and Km are the concentrations of hesperetin and L-dopa, and the Michaelis–Menten constant, respectively. α denotes the apparent coefficient and Ki represents dissociation constant of hesperetin binding with free PPO, which can be calculated using the secondary Equations (2) and (3). (2) Slope=Km/Vmax+Km[I]/VmaxKi (3) Y-intercept=1/Vmaxapp=1/Vmax+1/αVmaxKi[I]
At different concentrations of hesperetin, the effect on the enzymatic reaction rate (ΔOD/min) by increasing the concentrations of PPO were shown in Figure 1E. […] As the concentration of hesperetin increased, the slopes of the lines declined.
Four lines intersected in the second quadrant. Either the slopes or the Y-intercept of four lines augmented with the rising concentrations of hesperetin, which represented the values of Km increased in a concentration-dependent manner while that of Vmax decreased. […] The inhibition mechanism of hesperetin against PPO deserved further exploration. […] Thus, hesperetin may have a better chance to bind with free PPO instead of PPO–hesperetin complex.

The subject of assay [2] is T1, PPO.
T1 construct: purchased Worthington Biochemical Co. (Lakewood, CO, USA)
Nature of the assay: Fluorometric titration (fluorescence quenching of PPO). It is filed as binding, mushroom. On the procedure: Fluorescence spectra were measured at 298, 304 and 310 K by a fluorophotometer (F–7000, Hitachi, Tokyo, Japan). Briefly, the concentration of PPO was 2.0 μM, and the same volume of hesperetin was added into the PPO solution (2.0 mL) 10 times (0→25.0 μM). After each addition of hesperetin, 3 min was timed to equilibrate the mixed system. Then, the emission spectra (290–500 nm) were scanned at fixed excitation wavelength (280 nm).
To deduct the effect of internal filtration, all measured fluorescence data were processed through Formula (5):(5) FC=FMe^(A1+A2)/2 where FC and FM represent the corrected and detected fluorescence, respectively. A1 and A2 stand for the absorbance values of hesperetin at excitation and emission wavelengths, respectively.
The Stern–Volmer curves for PPO fluorescence quenched by hesperetin at each temperature were obtained through Equation (6):(6) F0/F=1+Kqτ0[Q]=1+Ksv[Q] where F and F0 denote the fluorescence intensity of PPO with and without hesperetin, respectively. Ksv, Kq and [Q] represent the fluorescence quenching constant, quenching rate constant and the concentration of hesperetin, respectively. τ0 represents the average fluorophore lifetime without hesperetin, and its value is usually equal to 10^−8 s.
Based on the following equation, the information about the interaction between hesperetin and PPO were obtained, including binding constant (Ka) and binding number (n):(7) logF0−F/F=nlogKa−nlog1/[Qt]−(F0−F)[Pt]/F0 where [Qt] and [Pt] stand for the concentrations of hesperetin and PPO. […] The n values at 298, 304 and 310 K were all equal to 1, implying that only one site existed when hesperetin interacted with PPO.
The values of ΔH°, ΔS° and ΔG°, which refer to enthalpy change, entropy change and free energy change, respectively, were obtained by the van ’t Hoff equations [42]:(8) logKa=−ΔH°/2.303RT+ΔS°/2.303R (9) ΔG°=ΔH°−TΔS° where T represents temperature; R represents gas constant, and its value is 8.314 J mol^−1 K^−1.

Assay [3] relates to PPO. More on the design: method as in PMID 22093614. The following applies: cited from earlier work.

Marks after values point to notes of the source that are not given here. Bounds are passed on as bounds.

Chain of PPO (Agaricus bisporus, UniProt C7FF04) (C7FF04 1-392): as the sequence (C7FF04 1-392) above
Chain of PPO (Agaricus bisporus, UniProt C7FF04) (G1K3P4 entry or part of it, further chain): as the sequence (G1K3P4 1-150 partner) above
Method for PPO (monophenolase): To determine the monophenolase inhibitory activity of hesperetin, PPO (0.2 μΜ) was mixed with various concentrations of hesperetin (0, 25, 50, 100, 150, 200, 250 and 500 μM), and the mixtures were incubated at 30 °C. After 1 h, L-tyrosine (0.5 mΜ, substrate) was added to the mixtures, and the detection began.

For the compound `O=c1c(O)c(-c2ccc(O)c(O)c2)oc2cc(O)cc(O)c12` [quercetin], on monophenolase, the 50% inhibitory concentration (IC50) is 19.4 ± 0.35 µM.
Consider `COc1ccc([C@@H]2CC(=O)c3c(O)cc(O)cc3O2)cc1O` [hesperetin, Hesperetin], for which the “lag time of L-tyrosine oxidation” value on PPO (monophenolase) (hesperetin at 500.0 μM, extended from 1.08 min without inhibitor) is 10.33 min. Moreover, the remaining activity at 100 µM on PPO (monophenolase) (read-out: residual activity of PPO (monophenolase)) came to 41.2%. Further, the “α (apparent coefficient)” value at PPO [1] (L-dopa substrate, mixed inhibition model) was found to be 2.93. For the same compound, the inhibitory type result on PPO [1] is “mixed-type inhibitor”. Further, the inhibitory type result on PPO [1] (listed as Hesperetin) is given as “mixed inhibitor”. The reversibility of inhibition result on PPO [1] (plots of v versus [PPO], L-dopa 0.5 mM) is listed as “reversibly inhibited”. Also, the “Kq (quenching rate constant)” value in the assay with PPO [2] (298, 304 and 310 K, τ0 = 10^−8 s, compared with maximum diffusion collision quenching constant) is > 2e+10 M⁻¹ s⁻¹. Further, in the assay with PPO [2] (298 K), the Ka is 19800 L/mol, the “Ka (binding constant)” value is on record as 1.98 ± 0.01 ^a ×10^4 L mol^−1, the Ksv result is recorded as “(1.71 ± 0.01) × 10^4 L mol^−1” and the “Ksv (quenching constant)” value is given as 1.71 ± 0.01 ^a ×10^4 L mol^−1. Also, the “n (number of binding sites)” value in the assay with PPO [2] (298 K) is recorded as 1.23 ± 0.03. In the assay on PPO [2] (304 K), the Ka is 20500 L/mol, the “Ka (binding constant)” value is on record as 2.05 ± 0.02 ^b ×10^4 L mol^−1, the Ksv result was “(1.76 ± 0.02) × 10^4 L mol^−1” and the “Ksv (quenching constant)” value was 1.76 ± 0.02 ^b ×10^4 L mol^−1. Besides, in the assay with PPO [2] (304 K), the “n (number of binding sites)” value turned out to be 1.08 ± 0.01. In the assay on PPO [2] (310 K), the Ka turned out to be 22200 L/mol, the “Ka (binding constant)” value is reported as 2.22 ± 0.05 ^c ×10^4 L mol^−1, the Ksv entry is “(2.09 ± 0.02) × 10^4 L mol^−1” and the “Ksv (quenching constant)” value is listed as 2.09 ± 0.02 ^c ×10^4 L mol^−1. For the same compound, the “n (number of binding sites)” value in the assay with PPO [2] (310 K) is recorded as 0.99 ± 0.04. The n values with PPO [2] (at 298, 304 and 310 K) came out at 1. Besides, the “inhibitory type (previous study)” value in the assay with PPO [3] is given as “competitive PPO inhibitor”.

The term IC50 denotes the midpoint of a concentration-inhibition curve.
